Experimental data: patent publication US20210369684A1 (MOUNT TAM THERAPEUTICS, INC., priority 2018, published 2021)

Legend:
6-OHDA injected mice [1] = test: Anti-TH immunohistochemistry, 6-OHDA-induced neuronal loss (TH-positive somas in SN); type: in vivo, mouse; settings: one-way ANOVA, FIG. 4B
Description: Immunohistochemistry analysis using anti-tyrosine hydroxylase (TH) antibody was also performed to quantify 6-OHDA-induced neuronal loss in mice injected with 6-OHDA and non-injected (control) sides of the brain. […] FIG. 4B presents the mean and standard error of the mean (SEM) as well as statistical analysis of the results.

6-OHDA injected mice [2] = test: Anti-TH immunohistochemistry, 6-OHDA-induced striatal denervation; type: in vivo, mouse; settings: one-way ANOVA, FIG. 3B
Description: Immunohistochemistry analysis using anti-tyrosine hydroxylase (TH) antibody was performed in mouse midbrain sections to quantify 6-OHDA-induced striatal denervation in mice injected with 6-OHDA and non-injected (control) sides of the brain. […] In contrast, both the 6-OHDA/rapamycin-treated and the 6-OHDA/Formula II-treated sides of the brain show increased staining with the anti-TH antibody, as indicated by the dark shading in those figures. FIG. 3B presents the mean and standard error of the mean (SEM) of the integrated density of anti-TH antibody staining in the striatum, as well as statistical analysis of the results for the groups of mice.

For CO[C@H]1C[C@@H]2CC[C@@H](C)[C@@](O)(O2)C(=O)C(=O)N2CCCC[C@H]2C(=O)O[C@H]([C@H](C)C[C@@H]2CC[C@@H](O)[C@H](OC)C2)CC(=O)[C@H](C)/C=C(\C)[C@@H](O)[C@@H](OC)C(=O)[C@H](C)C[C@H](C)/C=C/C=C/C=C/1C [rapamycin, Rapamycin, reference compound], the “TH+ neuronal loss, p versus vehicle control” value (6-OHDA injected mice [1]) was less than 0.001 and the “integrated density of anti-TH staining in striatum, p versus vehicle control” value (6-OHDA injected mice [2]) was less than 0.05.
